This data set addresses ATP-dependent translocase ABCB1 (Homo sapiens, UniProt P08183). The experiment in a line: TP_TRANSPORTER: inhibition of Verapamil stimulated ATP hydrolysis (Verapamil: 2 uM, Corticosterone: 800 uM) in membrane vesicles from DC-3F/ADX cells. The class given is functional, cell membranes, Membrane vesicle. The settings on record: hamster.

The structures appear in SMILES notation.

Sequence of ATP-dependent translocase ABCB1 (P08183 whole entry): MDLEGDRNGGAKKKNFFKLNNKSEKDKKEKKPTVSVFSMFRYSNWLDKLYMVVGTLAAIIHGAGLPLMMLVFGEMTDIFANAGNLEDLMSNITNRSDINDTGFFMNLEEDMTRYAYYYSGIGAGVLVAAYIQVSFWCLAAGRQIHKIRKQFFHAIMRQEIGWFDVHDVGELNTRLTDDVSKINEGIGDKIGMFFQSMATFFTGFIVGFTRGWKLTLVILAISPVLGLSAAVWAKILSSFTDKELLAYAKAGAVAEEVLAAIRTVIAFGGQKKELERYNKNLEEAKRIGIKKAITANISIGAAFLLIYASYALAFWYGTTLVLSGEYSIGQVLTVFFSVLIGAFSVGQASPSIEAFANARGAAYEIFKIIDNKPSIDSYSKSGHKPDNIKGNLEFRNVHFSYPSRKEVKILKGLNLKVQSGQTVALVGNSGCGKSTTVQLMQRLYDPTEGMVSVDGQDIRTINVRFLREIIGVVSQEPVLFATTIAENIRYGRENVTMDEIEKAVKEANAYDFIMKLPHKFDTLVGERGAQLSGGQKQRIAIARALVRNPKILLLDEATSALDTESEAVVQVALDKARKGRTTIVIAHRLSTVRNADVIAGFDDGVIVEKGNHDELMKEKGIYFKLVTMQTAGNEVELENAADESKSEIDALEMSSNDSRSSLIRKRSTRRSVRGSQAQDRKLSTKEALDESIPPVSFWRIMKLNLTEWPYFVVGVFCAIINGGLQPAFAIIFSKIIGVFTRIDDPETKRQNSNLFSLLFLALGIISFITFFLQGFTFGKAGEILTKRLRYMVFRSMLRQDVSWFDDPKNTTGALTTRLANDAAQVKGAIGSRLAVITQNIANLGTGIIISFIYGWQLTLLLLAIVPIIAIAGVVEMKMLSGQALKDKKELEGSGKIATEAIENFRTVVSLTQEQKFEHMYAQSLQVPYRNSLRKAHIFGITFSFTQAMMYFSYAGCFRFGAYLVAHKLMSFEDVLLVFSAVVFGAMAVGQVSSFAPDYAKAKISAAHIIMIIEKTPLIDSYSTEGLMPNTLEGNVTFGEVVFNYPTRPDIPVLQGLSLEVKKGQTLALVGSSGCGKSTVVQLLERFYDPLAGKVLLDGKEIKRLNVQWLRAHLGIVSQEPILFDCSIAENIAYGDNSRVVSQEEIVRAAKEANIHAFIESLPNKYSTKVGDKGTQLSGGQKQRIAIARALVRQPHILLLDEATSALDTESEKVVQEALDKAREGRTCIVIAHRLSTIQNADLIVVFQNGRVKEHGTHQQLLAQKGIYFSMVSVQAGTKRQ

As to `C[C@]12C[C@H](O)[C@H]3[C@@H](CCC4=CC(=O)CC[C@@]43C)[C@@H]1CC[C@@H]2C(=O)CO` [CORTICOSTERONE], the Activity result is “inhibitor [+]”.
